Tests used:
[1] = tested on: human ventricular trabeculae; experiment: Action potential recording and pro-arrhythmic score analysis in human ventricular trabeculae (hVT);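 note: sharp microelectrode action potential recordings at 37°C in Tyrode-perfused trabeculae, 4 cumulative concentrations each applied 31 min, values averaged over last 30 APs, vehicle 0.1% DMSO as control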
[2] = human free (unbound) effective therapeutic plasma concentration used to calculate multiples; cited from earlier work
[3] = 1Hz, 0.1-FOLD free ETPC (0.003µM)
[4] = 1Hz, 1-FOLD free ETPC (0.003µM)
[5] = 1Hz, 10-FOLD free ETPC (0.003µM)
[6] = 1Hz, 100-FOLD free ETPC (0.003µM)
[7] = 2Hz, 0.1-FOLD free ETPC (0.003µM)
[8] = 2Hz, 1-FOLD free ETPC (0.003µM)
[9] = 2Hz, 10-FOLD free ETPC (0.003µM)
[10] = 2Hz, 100-FOLD free ETPC (0.003µM)

Structure (SMILES): COc1cc(N)c(Cl)cc1C(=O)NC1CCN(CCCOc2ccc(F)cc2)CC1OC (stereo not shown) [CISAPRIDE, Cisapride]
- AMAX [1, 3]: 111
- AMAX percentage change compared to vehicle control [1, 3]: -2%
- APD30 [1, 3]: 153
- APD30 percentage change compared to vehicle control [1, 3]: -14%
- APD50 [1, 3]: 205
- APD50 percentage change compared to vehicle control [1, 3]: -13%
- APD90 [1, 3]: 281
- APD90 percentage change compared to vehicle control [1, 3]: -10%
- Alternans [1, 3]: 0.75
- Alternans percentage change compared to vehicle control [1, 3]: 14%
- Beat Escape [1, 3]: 0
- Beat Escape percentage change compared to vehicle control [1, 3]: 0%
- EADs [1, 3]: 0
- EADs percentage change compared to vehicle control [1, 3]: 0%
- ERP [1, 3]: 0.45
- ERP percentage change compared to vehicle control [1, 3]: 3%
- Max Dispersion [1, 3]: 3.28
- Max Dispersion percentage change compared to vehicle control [1, 3]: 11%
- RMP [1, 3]: -94
- RMP percentage change compared to vehicle control [1, 3]: -1%
- Refractoriness Escape [1, 3]: 0
- Refractoriness Escape percentage change compared to vehicle control [1, 3]: 0%
- STV [1, 3]: 0.54
- STV percentage change compared to vehicle control [1, 3]: 22%
- Triangulation [1, 3]: 127
- Triangulation percentage change compared to vehicle control [1, 3]: -3%
- AMAX [1, 4]: 111
- AMAX percentage change compared to vehicle control [1, 4]: -2%
- APD30 [1, 4]: 161
- APD30 percentage change compared to vehicle control [1, 4]: -11%
- APD50 [1, 4]: 213
- APD50 percentage change compared to vehicle control [1, 4]: -10%
- APD90 [1, 4]: 286
- APD90 percentage change compared to vehicle control [1, 4]: -9%
- Alternans [1, 4]: 0.76
- Alternans percentage change compared to vehicle control [1, 4]: 16%
- Beat Escape [1, 4]: 0
- Beat Escape percentage change compared to vehicle control [1, 4]: 0%
- EADs [1, 4]: 0
- EADs percentage change compared to vehicle control [1, 4]: 0%
- ERP [1, 4]: 0.44
- ERP percentage change compared to vehicle control [1, 4]: 1%
- Max Dispersion [1, 4]: 3.20
- Max Dispersion percentage change compared to vehicle control [1, 4]: 8%
- RMP [1, 4]: -96
- RMP percentage change compared to vehicle control [1, 4]: 0%
- Refractoriness Escape [1, 4]: 0
- Refractoriness Escape percentage change compared to vehicle control [1, 4]: 0%
- STV [1, 4]: 0.57
- STV percentage change compared to vehicle control [1, 4]: 42%
- Triangulation [1, 4]: 124
- Triangulation percentage change compared to vehicle control [1, 4]: -5%
- AMAX [1, 5]: 111
- AMAX percentage change compared to vehicle control [1, 5]: -1%
- APD30 [1, 5]: 148
- APD30 percentage change compared to vehicle control [1, 5]: -17%
- APD50 [1, 5]: 206
- APD50 percentage change compared to vehicle control [1, 5]: -13%
- APD90 [1, 5]: 285
- APD90 percentage change compared to vehicle control [1, 5]: -8%
- Alternans [1, 5]: 0.37
- Alternans percentage change compared to vehicle control [1, 5]: -44%
- Beat Escape [1, 5]: 0
- Beat Escape percentage change compared to vehicle control [1, 5]: 0%
- EADs [1, 5]: 0
- EADs percentage change compared to vehicle control [1, 5]: 0%
- ERP [1, 5]: 0.48
- ERP percentage change compared to vehicle control [1, 5]: 11%
- Max Dispersion [1, 5]: 2.73
- Max Dispersion percentage change compared to vehicle control [1, 5]: -8%
- RMP [1, 5]: -99
- RMP percentage change compared to vehicle control [1, 5]: 4%
- Refractoriness Escape [1, 5]: 0
- Refractoriness Escape percentage change compared to vehicle control [1, 5]: 0%
- STV [1, 5]: 0.27
- STV percentage change compared to vehicle control [1, 5]: -31%
- Triangulation [1, 5]: 137
- Triangulation percentage change compared to vehicle control [1, 5]: 4%
- AMAX [1, 6]: 116
- AMAX percentage change compared to vehicle control [1, 6]: 3%
- APD30 [1, 6]: 158
- APD30 percentage change compared to vehicle control [1, 6]: -12%
- APD50 [1, 6]: 224
- APD50 percentage change compared to vehicle control [1, 6]: -6%
- APD90 [1, 6]: 312
- APD90 percentage change compared to vehicle control [1, 6]: 0%
- Alternans [1, 6]: 0.54
- Alternans percentage change compared to vehicle control [1, 6]: -17%
- Beat Escape [1, 6]: 0
- Beat Escape percentage change compared to vehicle control [1, 6]: 0%
- EADs [1, 6]: 0
- EADs percentage change compared to vehicle control [1, 6]: 0%
- ERP [1, 6]: 0.49
- ERP percentage change compared to vehicle control [1, 6]: 14%
- Max Dispersion [1, 6]: 2.75
- Max Dispersion percentage change compared to vehicle control [1, 6]: -7%
- RMP [1, 6]: -102
- RMP percentage change compared to vehicle control [1, 6]: 7%
- Refractoriness Escape [1, 6]: 0
- Refractoriness Escape percentage change compared to vehicle control [1, 6]: 0%
- STV [1, 6]: 0.37
- STV percentage change compared to vehicle control [1, 6]: 3%
- Triangulation [1, 6]: 154
- Triangulation percentage change compared to vehicle control [1, 6]: 17%
- AMAX [1, 7]: 110
- AMAX percentage change compared to vehicle control [1, 7]: -2%
- APD30 [1, 7]: 114
- APD30 percentage change compared to vehicle control [1, 7]: -10%
- APD50 [1, 7]: 157
- APD50 percentage change compared to vehicle control [1, 7]: -8%
- APD90 [1, 7]: 228
- APD90 percentage change compared to vehicle control [1, 7]: -6%
- Alternans [1, 7]: 0.98
- Alternans percentage change compared to vehicle control [1, 7]: 18%
- Beat Escape [1, 7]: 0
- Beat Escape percentage change compared to vehicle control [1, 7]: 0%
- EADs [1, 7]: 0
- EADs percentage change compared to vehicle control [1, 7]: 0%
- ERP [1, 7]: 0.47
- ERP percentage change compared to vehicle control [1, 7]: 1%
- Max Dispersion [1, 7]: 4.08
- Max Dispersion percentage change compared to vehicle control [1, 7]: 3%
- RMP [1, 7]: -94
- RMP percentage change compared to vehicle control [1, 7]: 0%
- Refractoriness Escape [1, 7]: 0
- Refractoriness Escape percentage change compared to vehicle control [1, 7]: 0%
- STV [1, 7]: 0.76
- Triangulation [1, 7]: 114
- Triangulation percentage change compared to vehicle control [1, 7]: -2%
- AMAX [1, 8]: 109
- AMAX percentage change compared to vehicle control [1, 8]: -3%
- APD30 [1, 8]: 115
- APD30 percentage change compared to vehicle control [1, 8]: -10%
- APD50 [1, 8]: 156
- APD50 percentage change compared to vehicle control [1, 8]: -10%
- APD90 [1, 8]: 225
- APD90 percentage change compared to vehicle control [1, 8]: -8%
- Alternans [1, 8]: 0.99
- Alternans percentage change compared to vehicle control [1, 8]: 20%
- Beat Escape [1, 8]: 0
- Beat Escape percentage change compared to vehicle control [1, 8]: 0%
- EADs [1, 8]: 0
- EADs percentage change compared to vehicle control [1, 8]: 0%
- ERP [1, 8]: 0.46
- ERP percentage change compared to vehicle control [1, 8]: 1%
- Max Dispersion [1, 8]: 4.38
- Max Dispersion percentage change compared to vehicle control [1, 8]: 10%
- RMP [1, 8]: -94
- RMP percentage change compared to vehicle control [1, 8]: 0%
- Refractoriness Escape [1, 8]: 0
- Refractoriness Escape percentage change compared to vehicle control [1, 8]: 0%
- STV [1, 8]: 0.66
- Triangulation [1, 8]: 110
- Triangulation percentage change compared to vehicle control [1, 8]: -6%
- AMAX [1, 9]: 114
- AMAX percentage change compared to vehicle control [1, 9]: 1%
- APD30 [1, 9]: 110
- APD30 percentage change compared to vehicle control [1, 9]: -13%
- APD50 [1, 9]: 157
- APD50 percentage change compared to vehicle control [1, 9]: -9%
- APD90 [1, 9]: 231
- APD90 percentage change compared to vehicle control [1, 9]: -5%
- Alternans [1, 9]: 0.63
- Alternans percentage change compared to vehicle control [1, 9]: -24%
- Beat Escape [1, 9]: 0
- Beat Escape percentage change compared to vehicle control [1, 9]: 0%
- EADs [1, 9]: 0
- EADs percentage change compared to vehicle control [1, 9]: 0%
- ERP [1, 9]: 0.50
- ERP percentage change compared to vehicle control [1, 9]: 10%
- Max Dispersion [1, 9]: 2.55
- Max Dispersion percentage change compared to vehicle control [1, 9]: -36%
- RMP [1, 9]: -100
- RMP percentage change compared to vehicle control [1, 9]: 6%
- Refractoriness Escape [1, 9]: 0
- Refractoriness Escape percentage change compared to vehicle control [1, 9]: 0%
- STV [1, 9]: 0.45
- Triangulation [1, 9]: 122
- Triangulation percentage change compared to vehicle control [1, 9]: 4%
- AMAX [1, 10]: 114
- AMAX percentage change compared to vehicle control [1, 10]: 2%
- APD30 [1, 10]: 114
- APD30 percentage change compared to vehicle control [1, 10]: -10%
- APD50 [1, 10]: 168
- APD50 percentage change compared to vehicle control [1, 10]: -3%
- APD90 [1, 10]: 254
- APD90 percentage change compared to vehicle control [1, 10]: 4%
- Alternans [1, 10]: 0.75
- Alternans percentage change compared to vehicle control [1, 10]: -9%
- Beat Escape [1, 10]: 0
- Beat Escape percentage change compared to vehicle control [1, 10]: 0%
- EADs [1, 10]: 0
- EADs percentage change compared to vehicle control [1, 10]: 0%
- ERP [1, 10]: 0.52
- ERP percentage change compared to vehicle control [1, 10]: 13%
- Max Dispersion [1, 10]: 3.75
- Max Dispersion percentage change compared to vehicle control [1, 10]: -6%
- RMP [1, 10]: -101
- RMP percentage change compared to vehicle control [1, 10]: 7%
- Refractoriness Escape [1, 10]: 0
- Refractoriness Escape percentage change compared to vehicle control [1, 10]: 0%
- STV [1, 10]: 0.56
- Triangulation [1, 10]: 140
- Triangulation percentage change compared to vehicle control [1, 10]: 20%
- Free ETPC [2]: 0.003 µM

— publication PMC5760531, “Action Potential Recording and Pro-arrhythmia Risk Analysis in Human Ventricular Trabeculae” (Frontiers in Physiology, 2018)
